# Data: PMC3920478, “Small molecule-mediated refolding and activation of myosin motor function” (eLife, 2014)
# Several values for one entry are separate records, joined by “and”; a condition that tells them apart may be missing. Equal entries are not always repeated. Entries after “also recorded” stand apart in the source; their conditions may differ.
# Legend:
# β-cardiac myosin [1] = molecular target: T1, β-cardiac myosin (Sus scrofa, UniProt P79293); assay: Steady-state basal and actin-activated Mg2+-ATPase (NADH-coupled assay); assay type: biochemical, Porcine
# T1 sequence (P79293 1-810 limits assumed): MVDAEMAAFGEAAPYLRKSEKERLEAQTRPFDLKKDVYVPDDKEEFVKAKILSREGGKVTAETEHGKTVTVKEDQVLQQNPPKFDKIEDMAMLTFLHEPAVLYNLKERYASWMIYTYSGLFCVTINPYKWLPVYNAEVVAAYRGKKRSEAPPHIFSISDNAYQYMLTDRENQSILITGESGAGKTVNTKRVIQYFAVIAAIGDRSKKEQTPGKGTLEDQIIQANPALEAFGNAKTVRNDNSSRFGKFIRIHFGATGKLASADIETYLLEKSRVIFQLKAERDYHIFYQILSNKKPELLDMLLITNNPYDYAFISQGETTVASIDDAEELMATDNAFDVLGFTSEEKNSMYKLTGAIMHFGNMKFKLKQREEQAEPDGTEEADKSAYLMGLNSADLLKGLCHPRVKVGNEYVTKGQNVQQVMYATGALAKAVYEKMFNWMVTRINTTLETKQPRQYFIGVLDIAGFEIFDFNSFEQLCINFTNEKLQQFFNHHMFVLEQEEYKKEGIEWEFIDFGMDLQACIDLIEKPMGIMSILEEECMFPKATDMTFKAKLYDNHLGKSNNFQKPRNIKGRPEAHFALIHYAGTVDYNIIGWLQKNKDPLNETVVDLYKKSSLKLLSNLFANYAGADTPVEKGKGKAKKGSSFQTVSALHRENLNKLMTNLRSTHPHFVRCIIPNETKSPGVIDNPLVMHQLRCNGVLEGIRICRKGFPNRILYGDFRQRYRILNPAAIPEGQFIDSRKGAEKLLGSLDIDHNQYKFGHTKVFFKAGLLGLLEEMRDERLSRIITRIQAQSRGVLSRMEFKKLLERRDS
# dogs with heart failure = system: dogs with heart failure; parameters: method as in Senzaki et al., 2000; settings: ref Senzaki et al., 2000; cited from earlier work
# β-cardiac myosin [2] = molecular target: T1, β-cardiac myosin; assay: Steady-state basal and actin-activated Mg2+-ATPase (NADH-coupled assay); assay type: biochemical, Porcine; remark: listed apart in the source
# Description: Rabbit fast skeletal muscle heavy meromyosin (HMM) was prepared as described by [Margossian and Lowey (1982)]. Porcine β-cardiac myosin was prepared essentially as described by [Pant et al. (2009)] and [Jacques et al. (2008)] and further purified by gel filtration. S1 and HMM fragments were produced by proteolytic digestion of the full-length proteins with 0.05 mg/ml papain (10 min, 25°C) for S1 and with 0.1 mg/ml TLCK-treated α-chymotrypsin (15 min, 25°C) for HMM. Reactions were stopped with specific protease inhibitors for papain (10 µM E−64) and chymotrypsin (10 µM chymostatin, 1 mM benzamidine). Proteolytic fragments were further purified by actin-coprecipitation. Pellets were washed twice and myosin was extracted from the pellets using ATP containing buffer. Gel filtration was used to further increase purity of myosin S1 and HMM fragments. His-tagged motor domain constructs of Dd myosin-2, Dd myosin-1B, Dd myosin-1C, Dd myosin-1D, Dd myosin-1E, Dd myosin-5b fused to two Dd α-actinin repeats substituting the light-chain binding domains ([Anson et al., 1996]) were expressed in Dd AX3-ORF + cells and purified by Ni^2+-chelate affinity chromatography ([Manstein and Hunt, 1995]).
# Basal and actin-activated Mg^2+-ATPase activities were measured using the NADH-coupled assay described previously ([Furch et al., 1998]) adapted for higher throughput screens for a temperature controlled plate reader (Multiscan FC, Thermo Scientific, Waltham, MA) at 25°C. […] Control measurements were carried out in the absence of drug, as well as in the presence of according concentrations of the non-binding (−)-enantiomer EMD 57439 to account for possible absorption effects. […] Data points are mean values from 3 to 5 independent experiments. Error bars indicate standard deviations.
# [3] = system: neonatal rat cardiomyocytes (NRCM); assay: Neonatal rat cardiomyocytes: cell size, MHC and ANP expression at 37°C or 42°C; assay type: cell-based; settings: 10 µM, 24 hr
# Description: Cell culture media, fetal bovine serum (FBS), and horse serum (HS) were purchased from Biochrome (Berlin, Germany); all other chemicals were from Sigma-Aldrich (St Louis, MO). Isolation of neonatal rat cardiomyocytes (NRCM) was performed by enzymatic digestion of neonatal rat hearts as described previously ([Hilfiker-Kleiner et al., 2004]). NRCM were cultured in plating medium containing 5% FBS and 10% HS for 24 hr followed by serum-starvation for 48 hr. NRCM were cultured in serum-free medium containing either EMD (10 µM) or the corresponding volume of the solvent DMSO (1 µl/ ml) for additional 24 hr at 37°C or 42°C with 5% CO2.
# For indirect immunofluorescence NRCM were fixed with 95% ethanol. Monoclonal antibodies against sarcomeric α-actinin (1:50; Sigma-Aldrich) or sarcomeric Myosin heavy chain (1:50; Santa Cruz Biotechnology, Dallas, TX) were used. Fluor-488 goat anti-mouse IgG (1:250; Jackson ImmunoResearch, West Grove, PA) or Alexa Fluor 639 goat anti-rabbit (1:250; Jackson ImmunoResearch) was employed as secondary antibody. Immunofluorescence was detected by the use of the AxioVison Rel 4.1 package (Carl Zeiss GmbH).
# Realtime measurement of PCR amplification was performed using the Stratagene MX4000 multiplex QPCR System with the SYBR green dye method (Brilliant SYBR Green Mastermix-Kit, Stratagene, La Jolla, CA) as described ([Hilfiker-Kleiner et al., 2010]; [Hoch et al., 2011]). Total RNA was extracted from NRCM using Trizol reagent according to the manufactures protocol (Invitrogen, Carlsbad, CA). Reverse transcriptase (RT)-PCR was performed of ANP and b2m using 2 μg of total RNA. The primer sequences and PCR conditions are described in Table 3. PCR products were size-fractionated by 2% agarose gel electrophoresis.
# Protein expression in NRCM was determined by standard immunoblotting techniques under denaturing conditions, as described previously ([Hilfiker-Kleiner et al., 2004]). A monoclonal primary antibody against sarcomeric MHC (1:1.000; Abcam, Cambridge, UK) was used and signal detection was achieved by the usage of a horseradish peroxydase-conjugated secondary antibody (GE) and ECL-detection. PonceauS staining was carried out and used as a loading control.
# phosphodiesterase III = system: phosphodiesterase III; parameters: method as in Gambassi et al., 1993; settings: ref Gambassi et al., 1993; cited from earlier work
compound,measurement,setting,value
COc1ccc(C(=O)N2CCCc3cc(C4=NNC(=O)SC4C)ccc32)cc1OC (stereo not drawn) [EMD 57033],"Ea ∼Change (−fold), reduction",β-cardiac myosin [1]; EMD 57033 vs control,1.5 fold
same,Ea (Arrhenius activation energy of ATP turnover),"β-cardiac myosin [1]; in presence of EMD 57033, 25–45°C",7.41 kcal/mol and 7.41 ± 0.72 kcal/mol
same,Haemodynamic effects in failing heart,dogs with heart failure,"potent positive inotropic effects, reduced oxygen cost of contraction, and enhanced diastolic chamber performance"
same,Normalized maximal ATPase activation (basal),β-cardiac myosin [2],1.5
same,"Effect on KM,ATP (Lineweaver–Burk plot)",β-cardiac myosin [2]; 25 µM EMD 57033,remains unaffected
same,kcat increase (Lineweaver–Burk plot),β-cardiac myosin [2]; 25 µM EMD 57033,1.5 fold
same,"kcat ∼Change (−fold), increase",β-cardiac myosin [2]; 25 µM EMD 57033 vs control,1.6 fold
same,kcat/KM(Actin) (initial slope) ∼Change (−fold),β-cardiac myosin [2]; 25 µM EMD 57033 vs control,~15.8 fold
same,Normalized maximal ATPase activation (with 30 µM actin),β-cardiac myosin [2]; 30 µM actin,2.5
same,kcat (actin-activated ATPase),β-cardiac myosin [2]; in presence of 25 µM EMD 57033,0.19 ± 0.02 s⁻¹
same,"kcat/KM(Actin), calculated ratio of both values",β-cardiac myosin [2]; in presence of 25 µM EMD 57033,0.0528 µM^v1 s^−1
same,Basal ATP turnover relative to that expected for 100% active protein,β-cardiac myosin [2]; saturating EMD 57033,1.5 fold
same,AC50,"β-cardiac myosin [2]; β-Cardiac myosin-2 (S1, full-length), read-out: AC50 ATPase (half-maximal activation)",7 µM
same,ATPase activity in excess of the value expected for a 100% active population of myosin heads,β-cardiac myosin [2]; β-cardiac myosin and Dd myosin-2 preparations together,30–50%
same,ANP mRNA expression,[3]; 37°C,not significantly changed; also recorded: does not affect expression of ANP mRNA
same,Total cardiac MHC protein content,[3]; 37°C or 42°C,without significant changes in total cardiac MHC protein content; also recorded: does not significantly alter MHC protein levels
same,β-cardiac MHC mRNA expression,"[3]; 37°C, vs DMSO",reduction in β-cardiac MHC transcripts; also recorded: significantly reduces
same,ANP mRNA expression induced by hyperthermic stress,[3]; 42°C,completely suppressed; also recorded: fully suppressed
same,β-cardiac MHC mRNA downregulation,[3]; 42°C,significantly more pronounced
same,α-cardiac MHC mRNA expression,[3]; vs DMSO,without significant changes; also recorded: does not alter α-cardiac MHC mRNA expression
same,Phosphodiesterase III inhibition,phosphodiesterase III,only minimal phosphodiesterase III inhibitory effects
